# Where “and” joins values, the source holds several entries; their conditions need not be identical. Equal entries are not always repeated. Entries after “also recorded” stand apart in the source; their conditions may differ.
# How the values were obtained:
# HEK-293 cells = experiment: 86Rb+ uptake assay in empty-vector-transfected HEK-293 cells; format: cell-based, human; set-up: key: 86Rb+ uptake in CPM per mg protein; settings: Fig 3b, Empty V + Bum (0.1 mM), ouabain, replicates, listed as Bum
# Method: (§1) Thirty-six hours post transfection, cells were exposed for 30 min to either control isotonic conditions or hypotonic low [Cl^−] conditions (to activate the SPAK/OSR1 pathway), and then treated for an additional 30 min in the same conditions with the indicated ZT-1a concentrations in the presence of 1 mM ouabain and 0.1 mM bumetanide. Ten-minute ^86Rb^+ uptake values were quantified by scintillation counting, normalized per mg protein for each condition, and plotted for both isotonic and hypotonic conditions. ***p < 0.001; **p < 0.01; *p < 0.05; ns—nonsignificant [by one-way ANOVA with post hoc testing (n = 6, error bars represent the mean ± SEM)]. b ^86Rb^+ uptake assays in the presence of ZT-1a measure transport activity of NKCC1. […] Thirty-six hours post transfection, cells were exposed for 30 min to either control isotonic conditions or hypotonic low [Cl^−] conditions (to activate the SPAK/OSR1 pathway), and then treated in the same conditions for an additional 30 min with 10 µM ZT-1a or 0.1 mM bumetanide (Bum) in the presence of 1 mM ouabain (Na^+/K^+-ATPase inhibitor). ^86Rb^+ uptake was allowed to proceed for 10 min and was then quantified by scintillation counting. ^86Rb^+ uptake CPMs were normalized per mg protein and plotted for both isotonic and hypotonic conditions. […] Thirty-six hours post transfection, cells were exposed for 30 min to either control isotonic conditions or hypotonic low [Cl^−] conditions (to activate the SPAK/OSR1 pathway), and then treated for an additional 30 min in the same conditions with the indicated ZT-1a concentrations in the presence of 1 mM ouabain. Ten-minute ^86Rb^+ uptake values were quantified by scintillation counting, normalized per mg protein for each condition, and plotted for both isotonic and hypotonic conditions. ***p < 0.001; **p < 0.01; *p < 0.05; ns—nonsignificant [by one-way ANOVA with post hoc testing (n = 6, error bars represent the mean ± SEM)].
# (§2) This stimulating medium was then removed and replaced with isotonic medium containing inhibitors plus 2 µCi/ml ^86Rb^+. After incubation for 10 min at 37 °C, cells were rapidly washed three times with the respective ice-cold nonradioactive medium. Washed cells were lysed in 300 µl of ice-cold lysis buffer and ^86Rb^+ uptake was quantitated by liquid scintillation counting (PerkinElmer).
# [1] = tested on: mouse primary cortical neurons; experiment: Cell volume measurement (calcein-AM) under hyperosmotic stress, primary cortical neurons
# NKCC1 = experiment: 86Rb+ uptake assay for NKCC1 activity in HEK-293 cells; format: cell-based; set-up: key to 86Rb+ uptake: 86Rb+ uptake in CPM per mg protein; settings: for 86Rb+ uptake: Fig 3b, NKCC1 + Bum (0.1 mM), replicates, listed as Bum
# Method: as §1, §2
# human fibroblast cells = experiment: Cell volume measurement (calcein-AM) under hyperosmotic stress, human fibroblasts; settings: hypertonic 515 mOsm; BMT or ZT-1a
# [2] = tested on: mouse model of ischemic stroke (tMCAO); experiment: Infarct volume and hemispheric swelling (TTC) 24 h after tMCAO; format: in vivo
# mice = settings: mouse, in vivo
# Method: Post-stroke administration of Closantel in mice reduced ischemic cerebral infarction size and brain swelling in a dose-dependent manner. However, we detected Closantel toxicity in mice at higher doses (~25 mg/kg), consistent with reported adverse effects in humans, including weakness, visual impairment, and blindness[72],[73]. The in vitro nanomolar-potency pan-WNK-kinase inhibitor WNK463 was developed as an antihypertensive drug[74]. […] Although the causes of these adverse effects remain unclear, they also discouraged efficacy testing of WNK463 at higher doses.
smiles,measurement,setting,value
"CCCCNc1cc(C(=O)O)cc(S(N)(=O)=O)c1Oc1ccccc1 [bumetanide, reference compound]",86Rb+ uptake,HEK-293 cells; Hypotonic low Cl-,1107.6 and 1237.8 and 1137.4 and 1021.4 and 1200.9 and 1076.2
same,86Rb+ uptake,HEK-293 cells; Isotonic control,803.5 and 942.1 and 914.8 and 786.4 and 978.4 and 901.5
same,Cell water (relative change),"[1]; Fig 5b trace, Time 1.00403",0.9843 relative change
same,Cell water (relative change),"[1]; Fig 5b trace, Time 2.00427",1.007 relative change
same,Cell water (relative change),"[1]; Fig 5b trace, Time 3.00425",1.002 relative change
same,Cell water (relative change),"[1]; Fig 5b trace, Time 4.00423",1.004 relative change
same,Cell water (relative change),"[1]; Fig 5b trace, Time 5.0042",1.002 relative change
same,Cell water (relative change),"[1]; Fig 5b trace, Time 6.00445",0.7352 relative change
same,Cell water (relative change),"[1]; Fig 5b trace, Time 7.00442",0.6913 relative change
same,Cell water (relative change),"[1]; Fig 5b trace, Time 8.00435",0.6745 relative change
same,Cell water (relative change),"[1]; Fig 5b trace, Time 9.00452",0.6038 relative change
same,Cell water (relative change),"[1]; Fig 5b trace, Time 10.0046",0.5839 relative change
same,Cell water (relative change),"[1]; Fig 5b trace, Time 11.0045",0.5893 relative change
same,Cell water (relative change),"[1]; Fig 5b trace, Time 12.0045",0.5422 relative change
same,Cell water (relative change),"[1]; Fig 5b trace, Time 13.0045",0.523 relative change
same,Cell water (relative change),"[1]; Fig 5b trace, Time 14.0045",0.4977 relative change
same,Cell water (relative change),"[1]; Fig 5b trace, Time 15.0047",0.5231 relative change
same,Cell water (relative change),"[1]; Fig 5b trace, Time 16.0047",0.4947 relative change
same,Cell water (relative change),"[1]; Fig 5b trace, Time 17.0047",0.4924 relative change
same,Cell water (relative change),"[1]; Fig 5b trace, Time 18.0047",0.4545 relative change
same,Cell water (relative change),"[1]; Fig 5b trace, Time 19.0049",0.4799 relative change
same,Cell water (relative change),"[1]; Fig 5b trace, Time 20.0049",0.4586 relative change
same,Cell water (relative change),"[1]; Fig 5b trace, Time 21.0048",0.4488 relative change
same,Cell water (relative change),"[1]; Fig 5b trace, Time 22.0048",0.4846 relative change
same,Cell water (relative change),"[1]; Fig 5b trace, Time 23.005",0.4766 relative change
same,Cell water (relative change),"[1]; Fig 5b trace, Time 24.0048",0.4819 relative change
same,Cell water (relative change),"[1]; Fig 5b trace, Time 25.005",0.4751 relative change
same,Cell water (relative change),"[1]; Fig 5b trace, Time 26.0053",0.6008 relative change
same,Cell water (relative change),"[1]; Fig 5b trace, Time 27.005",0.6725 relative change
same,Cell water (relative change),"[1]; Fig 5b trace, Time 28.005",0.7341 relative change
same,Cell water (relative change),"[1]; Fig 5b trace, Time 29.0051",0.8379 relative change
same,Cell water (relative change),"[1]; Fig 5b trace, Time 30.005",0.9275 relative change
same,Cell water (relative change),"[1]; Fig 5b trace, Time 31.005",0.981 relative change
same,Cell water (relative change),"[1]; Fig 5b trace, Time 32.005",1.048 relative change
same,Cell water (relative change),"[1]; Fig 5b trace, Time 33.0052",1.114 relative change
same,Cell water (relative change),"[1]; Fig 5b trace, Time 34.0052",1.157 relative change
same,Cell water (relative change),"[1]; Fig 5b trace, Time 35.0052",1.203 relative change
same,Cell water (relative change),[1]; Time 1.0036,0.9714
same,Cell water (relative change),[1]; Time 2.0038,1.0042
same,Cell water (relative change),[1]; Time 3.0038,1.0139
same,Cell water (relative change),[1]; Time 4.0037,0.9906
same,Cell water (relative change),[1]; Time 5.0037,1.0199
same,Cell water (relative change),[1]; Time 6.0037,0.4476
same,Cell water (relative change),[1]; Time 7.0039,0.4233
same,Cell water (relative change),[1]; Time 8.0040,0.4625
same,Cell water (relative change),[1]; Time 9.0042,0.4683
same,Cell water (relative change),[1]; Time 10.0039,0.4401
same,Cell water (relative change),[1]; Time 11.0039,0.4457
same,Cell water (relative change),[1]; Time 12.0039,0.4507
same,Cell water (relative change),[1]; Time 13.0041,0.4223
same,Cell water (relative change),[1]; Time 14.0041,0.4334
same,Cell water (relative change),[1]; Time 15.0040,0.4490
same,Cell water (relative change),[1]; Time 16.0040,0.4184
same,Cell water (relative change),[1]; Time 17.0040,0.3961
same,Cell water (relative change),[1]; Time 18.0045,0.4241
same,Cell water (relative change),[1]; Time 19.0042,0.4174
same,Cell water (relative change),[1]; Time 20.0042,0.4139
same,Cell water (relative change),[1]; Time 21.0042,0.4233
same,Cell water (relative change),[1]; Time 22.0041,0.4177
same,Cell water (relative change),[1]; Time 23.0044,0.4195
same,Cell water (relative change),[1]; Time 24.0044,0.4281
same,Cell water (relative change),[1]; Time 25.0043,0.4058
same,Cell water (relative change),[1]; Time 26.0043,0.5463
same,Cell water (relative change),[1]; Time 27.0043,0.6294
same,Cell water (relative change),[1]; Time 28.0045,0.7254
same,Cell water (relative change),[1]; Time 29.0044,0.8393
same,Cell water (relative change),[1]; Time 30.0044,0.8966
same,Cell water (relative change),[1]; Time 31.0046,1.0008
same,Cell water (relative change),[1]; Time 32.0046,1.0678
same,Cell water (relative change),[1]; Time 33.0046,1.1243
same,Cell water (relative change),[1]; Time 34.0045,1.1834
same,Cell water (relative change),[1]; Time 35.0045,1.2456
same,regulatory volume increase (RVI) response of primary cortical neurons,"[1]; hyperosmotic stress 370 mOsm, ZT-1a 3 μM, BMT 10 μM",no RVI response
same,cell shrinkage of primary cortical neurons,"[1]; hypertonic 370 mOsm/kg H2O, earlier manuscript version quoted in peer-review file",86%
same,initial rate of cell shrinkage,"[1]; hypertonic stress, earlier manuscript version quoted in peer-review file",45 ± 4 % vol/min
same,neurons exhibiting RVI / cells analysed,"[1]; hypertonicity-mediated osmotic shrinkage, three cultures",0/46
same,K+ flux of cells transfected with empty vector or NKCC1 wt cDNA,"NKCC1; 0.1 mM bumetanide, isotonic or hypotonic low Cl−",significantly decreased K^+ flux
same,86Rb+ uptake,NKCC1; Hypotonic low Cl-,9502.3 and 11310.4 and 9641.4 and 10421.5 and 10765.4 and 9047.7
same,86Rb+ uptake,NKCC1; Isotonic control,1674.6 and 1506.3 and 1758.1 and 1840.4 and 1694.7 and 1729.5
same,regulatory volume increase (RVI) in human fibroblast cells,human fibroblast cells,absence of RVI
CC(C)(C)NC(=O)c1cncn1C1CCN(c2ccc(-c3nnc(C(F)(F)F)o3)cn2)CC1 [WNK463],Infarct volume (mm3),"[2]; Fig 9b, group WNK463, individual mice",59.9 mm3 and 47.6 mm3 and 101.01 mm3 and 100.21 mm3
same,Hemisphere swelling (%),"[2]; Fig 9c, group WNK463, individual mice",22.63% and 14.43% and 26.7% and 16.53%
same,infarct volume and hemispheric swelling (neuroprotection),"[2]; WNK463 2.5 mg/kg, 24 h post reperfusion, 2.5 mg/kg",reduced neither infarct volume nor hemispheric swelling; also recorded: not neuroprotective
same,adverse effects in mice,mice,ataxia and breathing difficulties
